# Experiments:
# potassium arsenate = compound: O=[As]([O-])(O)O.[K+] [potassium arsenate]; test: thermal stability z-score vs DMSO; higher = more thermally stabilized by treatment; settings: HeLa; arsenate concentration 1 mM
# Experimental: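 Cellular thermal proteome profiling in HeLa cells treated with 1 mM arsenate for 1 h (DMSO pretreatment), heated to ten temperatures (37-66.3 °C). Soluble protein was quantified by TMT mass spectrometry relative to DMSO controls; the thermal stability score was transformed to a z-score; mean of n = 3 experiments.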
# lipoamide = compound: NC(=O)CCCCC1CCSS1 [lipoamide]; test: as above; settings: HeLa, lipoamide concentration 100 µM
# Experimental: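 Cellular thermal proteome profiling in HeLa cells. Cells were treated with 100 µM lipoamide for 1 h, with or without 1 mM arsenate for a further 1 h, then heated to ten temperatures (37-66.3 °C), and soluble protein was quantified by TMT mass spectrometry relative to 0.1% DMSO controls. The thermal stability score (sum of log2 fold changes minus the abundance score) was transformed to a z-score; mean of n = 3 experiments.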
# [1] = arsenate co-treatment: 1 mM arsenate 1 h
# 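Note: each temperature applied for 3 min, abundance score taken as mean log2 fold change at the two lowest temperatures, z-score obtained by mean subtraction and division by SD.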
# UniProt Q9NWF9, sequence (Q9NWF9 whole entry): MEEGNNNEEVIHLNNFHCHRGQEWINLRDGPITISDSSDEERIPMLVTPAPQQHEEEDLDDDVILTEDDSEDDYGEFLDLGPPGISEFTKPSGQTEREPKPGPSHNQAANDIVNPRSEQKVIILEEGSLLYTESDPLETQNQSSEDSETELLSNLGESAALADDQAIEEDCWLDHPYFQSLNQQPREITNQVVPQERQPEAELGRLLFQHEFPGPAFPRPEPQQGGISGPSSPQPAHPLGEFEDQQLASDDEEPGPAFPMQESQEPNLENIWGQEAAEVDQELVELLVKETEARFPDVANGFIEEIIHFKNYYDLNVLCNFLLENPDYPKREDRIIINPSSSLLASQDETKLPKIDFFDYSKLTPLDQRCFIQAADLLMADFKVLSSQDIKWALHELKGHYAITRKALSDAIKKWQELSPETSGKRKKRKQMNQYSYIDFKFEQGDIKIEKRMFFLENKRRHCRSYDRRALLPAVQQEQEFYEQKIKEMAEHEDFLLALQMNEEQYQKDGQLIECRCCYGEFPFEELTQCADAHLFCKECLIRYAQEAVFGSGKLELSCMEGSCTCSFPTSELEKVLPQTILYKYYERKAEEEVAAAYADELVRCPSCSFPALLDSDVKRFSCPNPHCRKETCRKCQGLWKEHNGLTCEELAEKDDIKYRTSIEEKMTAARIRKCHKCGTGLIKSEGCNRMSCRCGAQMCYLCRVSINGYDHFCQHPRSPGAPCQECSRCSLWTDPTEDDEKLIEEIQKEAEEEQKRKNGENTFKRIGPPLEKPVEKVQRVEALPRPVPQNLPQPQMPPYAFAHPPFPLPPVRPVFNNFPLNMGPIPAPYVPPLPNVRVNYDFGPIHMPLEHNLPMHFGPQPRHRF
# UniProt Q8WU17, sequence (Q8WU17 whole entry): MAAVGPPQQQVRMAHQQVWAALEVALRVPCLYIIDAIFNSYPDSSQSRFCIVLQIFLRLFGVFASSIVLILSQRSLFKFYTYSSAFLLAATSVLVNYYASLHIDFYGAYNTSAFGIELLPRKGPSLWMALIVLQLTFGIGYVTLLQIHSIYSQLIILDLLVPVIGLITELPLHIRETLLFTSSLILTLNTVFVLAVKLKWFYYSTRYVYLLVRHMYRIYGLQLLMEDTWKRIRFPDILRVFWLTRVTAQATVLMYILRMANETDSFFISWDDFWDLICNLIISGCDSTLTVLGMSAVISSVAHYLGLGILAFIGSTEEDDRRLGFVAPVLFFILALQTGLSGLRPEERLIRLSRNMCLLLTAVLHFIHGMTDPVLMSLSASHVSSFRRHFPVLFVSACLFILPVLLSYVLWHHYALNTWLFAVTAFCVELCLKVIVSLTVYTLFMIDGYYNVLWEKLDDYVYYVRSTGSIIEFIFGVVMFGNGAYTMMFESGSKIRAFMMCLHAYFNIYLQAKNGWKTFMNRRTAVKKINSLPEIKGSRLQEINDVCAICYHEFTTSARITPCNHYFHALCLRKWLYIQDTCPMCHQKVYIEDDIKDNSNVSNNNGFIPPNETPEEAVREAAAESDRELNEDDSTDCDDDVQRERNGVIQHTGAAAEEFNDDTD
# UniProt Q96DB5, sequence (Q96DB5 whole entry): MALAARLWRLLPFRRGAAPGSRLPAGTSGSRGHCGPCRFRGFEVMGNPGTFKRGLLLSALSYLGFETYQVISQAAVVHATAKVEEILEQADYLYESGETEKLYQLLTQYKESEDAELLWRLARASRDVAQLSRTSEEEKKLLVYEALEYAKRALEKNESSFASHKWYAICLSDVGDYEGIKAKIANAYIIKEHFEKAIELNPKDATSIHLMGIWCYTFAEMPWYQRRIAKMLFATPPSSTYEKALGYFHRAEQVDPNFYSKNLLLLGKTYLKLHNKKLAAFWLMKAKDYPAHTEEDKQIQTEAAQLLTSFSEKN
# UniProt P78317, sequence (P78317 whole entry): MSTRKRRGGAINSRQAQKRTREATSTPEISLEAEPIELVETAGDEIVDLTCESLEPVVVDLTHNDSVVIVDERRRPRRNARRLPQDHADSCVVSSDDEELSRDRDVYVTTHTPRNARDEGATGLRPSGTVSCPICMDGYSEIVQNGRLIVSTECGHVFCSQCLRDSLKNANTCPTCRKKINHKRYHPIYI
# UniProt Q5TA31, sequence (Q5TA31 whole entry): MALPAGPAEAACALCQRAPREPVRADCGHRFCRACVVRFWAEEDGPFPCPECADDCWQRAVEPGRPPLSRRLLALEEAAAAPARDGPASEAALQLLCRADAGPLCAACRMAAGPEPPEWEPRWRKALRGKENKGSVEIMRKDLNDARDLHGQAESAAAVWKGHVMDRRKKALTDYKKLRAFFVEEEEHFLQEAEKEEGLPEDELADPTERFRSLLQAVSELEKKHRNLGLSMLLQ
# UniProt Q5TBB1, sequence (Q5TBB1 whole entry): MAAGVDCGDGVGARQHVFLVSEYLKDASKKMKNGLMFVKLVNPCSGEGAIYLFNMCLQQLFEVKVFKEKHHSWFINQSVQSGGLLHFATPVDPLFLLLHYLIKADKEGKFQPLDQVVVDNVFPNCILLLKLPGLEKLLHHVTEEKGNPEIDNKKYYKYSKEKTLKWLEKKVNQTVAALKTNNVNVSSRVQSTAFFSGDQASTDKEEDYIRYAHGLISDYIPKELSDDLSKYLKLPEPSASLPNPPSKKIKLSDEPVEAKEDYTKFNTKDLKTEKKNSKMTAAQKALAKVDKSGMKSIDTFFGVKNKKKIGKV
# UniProt Q96TC7, sequence (Q96TC7 whole entry): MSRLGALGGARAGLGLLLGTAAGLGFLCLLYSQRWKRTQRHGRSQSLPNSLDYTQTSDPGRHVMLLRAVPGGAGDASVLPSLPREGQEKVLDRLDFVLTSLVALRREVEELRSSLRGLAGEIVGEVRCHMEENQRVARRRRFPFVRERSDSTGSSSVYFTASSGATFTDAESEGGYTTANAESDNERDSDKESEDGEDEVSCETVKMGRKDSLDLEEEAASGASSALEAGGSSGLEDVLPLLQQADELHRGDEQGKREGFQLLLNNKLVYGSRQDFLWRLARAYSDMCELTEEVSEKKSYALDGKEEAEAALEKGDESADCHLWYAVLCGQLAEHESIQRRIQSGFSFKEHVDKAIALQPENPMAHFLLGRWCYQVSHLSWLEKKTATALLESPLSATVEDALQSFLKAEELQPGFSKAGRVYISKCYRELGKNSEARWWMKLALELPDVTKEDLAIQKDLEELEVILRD
# UniProt O75792, sequence (O75792 whole entry): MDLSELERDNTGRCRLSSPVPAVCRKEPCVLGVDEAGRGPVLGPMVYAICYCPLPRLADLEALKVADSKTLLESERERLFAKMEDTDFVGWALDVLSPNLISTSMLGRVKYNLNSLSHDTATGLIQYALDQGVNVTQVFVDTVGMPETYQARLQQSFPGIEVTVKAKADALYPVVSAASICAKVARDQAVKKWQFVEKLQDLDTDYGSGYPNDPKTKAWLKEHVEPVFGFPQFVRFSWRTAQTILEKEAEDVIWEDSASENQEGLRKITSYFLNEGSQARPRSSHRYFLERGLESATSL
# UniProt Q99942, sequence (Q99942 whole entry): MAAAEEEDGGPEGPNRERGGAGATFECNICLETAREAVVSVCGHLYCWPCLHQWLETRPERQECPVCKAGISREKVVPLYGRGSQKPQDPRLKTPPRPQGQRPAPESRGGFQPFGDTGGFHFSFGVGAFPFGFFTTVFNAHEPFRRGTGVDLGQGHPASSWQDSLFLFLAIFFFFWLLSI
# UniProt Q9H920, sequence (Q9H920 whole entry): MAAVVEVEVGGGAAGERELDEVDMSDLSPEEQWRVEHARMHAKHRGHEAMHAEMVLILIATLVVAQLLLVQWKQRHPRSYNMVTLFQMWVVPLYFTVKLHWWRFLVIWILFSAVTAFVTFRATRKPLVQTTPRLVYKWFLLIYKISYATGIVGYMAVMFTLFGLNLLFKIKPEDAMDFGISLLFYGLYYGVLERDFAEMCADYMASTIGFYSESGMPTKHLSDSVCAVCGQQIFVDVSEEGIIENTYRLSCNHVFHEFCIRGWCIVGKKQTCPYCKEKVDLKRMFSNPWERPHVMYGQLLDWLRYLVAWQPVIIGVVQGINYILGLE
# UniProt Q9P0P0, sequence (Q9P0P0 whole entry): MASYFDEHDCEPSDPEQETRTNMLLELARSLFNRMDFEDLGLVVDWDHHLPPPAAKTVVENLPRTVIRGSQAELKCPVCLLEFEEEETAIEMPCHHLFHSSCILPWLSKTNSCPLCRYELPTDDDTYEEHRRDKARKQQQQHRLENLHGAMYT
# UniProt Q8NCN4, sequence (Q8NCN4 whole entry): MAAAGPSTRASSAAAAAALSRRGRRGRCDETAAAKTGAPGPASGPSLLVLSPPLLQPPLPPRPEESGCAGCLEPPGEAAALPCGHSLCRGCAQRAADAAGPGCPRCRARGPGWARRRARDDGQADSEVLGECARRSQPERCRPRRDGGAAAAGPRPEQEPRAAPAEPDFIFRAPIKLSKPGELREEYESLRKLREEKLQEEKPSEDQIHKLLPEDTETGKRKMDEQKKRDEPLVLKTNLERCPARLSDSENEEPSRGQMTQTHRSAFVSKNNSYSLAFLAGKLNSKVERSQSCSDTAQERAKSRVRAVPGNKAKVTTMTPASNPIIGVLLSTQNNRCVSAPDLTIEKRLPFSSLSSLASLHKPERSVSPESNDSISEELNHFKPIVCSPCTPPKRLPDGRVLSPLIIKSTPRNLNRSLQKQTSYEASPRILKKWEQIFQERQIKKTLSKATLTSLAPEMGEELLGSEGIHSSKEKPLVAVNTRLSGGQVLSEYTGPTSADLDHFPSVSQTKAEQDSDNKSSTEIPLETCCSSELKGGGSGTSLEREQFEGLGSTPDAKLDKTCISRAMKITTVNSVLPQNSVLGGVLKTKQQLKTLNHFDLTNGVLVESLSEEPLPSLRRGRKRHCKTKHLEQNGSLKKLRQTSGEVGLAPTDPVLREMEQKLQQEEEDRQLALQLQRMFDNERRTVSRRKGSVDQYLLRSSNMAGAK
# UniProt Q8TDP1, sequence (Q8TDP1 whole entry): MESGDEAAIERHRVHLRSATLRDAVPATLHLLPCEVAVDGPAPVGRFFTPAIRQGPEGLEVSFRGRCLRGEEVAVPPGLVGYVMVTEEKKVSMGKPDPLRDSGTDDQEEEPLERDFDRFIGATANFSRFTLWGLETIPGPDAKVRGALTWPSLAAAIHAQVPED
Target,thermal stability z-score (potassium arsenate),thermal stability z-score (lipoamide; [1]),thermal stability z-score (lipoamide; arsenate co-treatment: none)
RIPK2 (UniProt O43353),-0.644,-0.255,0.45
RLIM (UniProt Q9NVW2),0.107,-0.546,-0.0531
RMDN1 (UniProt Q96DB5),0.171,0.0143,-0.0301
RMDN3 (UniProt Q96TC7),0.289,-0.522,-0.501
RMND1 (UniProt Q9NWS8),0.244,0.392,0.519
RMND5A (UniProt Q9H871),0.156,0.216,0.0656
RNASEH2A (UniProt O75792),0.138,0.0654,0.493
RNASEH2B (UniProt Q5TBB1),-0.161,0.719,0.517
RNASEH2C (UniProt Q8TDP1),-0.406,-0.258,-0.493
RNF2 (UniProt Q99496),-0.107,-0.111,-0.172
RNF4 (UniProt P78317),-0.192,-1.23,-0.848
RNF5 (UniProt Q99942),-0.145,-0.0839,0.142
RNF10 (UniProt Q8N5U6),-0.23,-0.0188,-0.286
RNF14 (UniProt Q9UBS8),0.158,-1.18,0.11
RNF20 (UniProt Q5VTR2),-0.112,-0.218,-0.026
RNF25 (UniProt Q96BH1),-1.12,-0.412,-0.217
RNF31 (UniProt Q96EP0),-0.255,-0.101,0.0489
RNF34 (UniProt Q969K3),-0.392,-0.0298,0.0211

Target,thermal stability z-score (potassium arsenate),thermal stability z-score (lipoamide; [1]),thermal stability z-score (lipoamide; arsenate co-treatment: none)
RNF40 (UniProt O75150),0.711,0.453,0.161
RNF113A (UniProt O15541),-0.554,-0.642,-0.0196
RNF114 (UniProt Q9Y508),-1.6,-0.534,-0.407
RNF121 (UniProt Q9H920),-1.09,-1,-0.693
RNF123 (UniProt Q5XPI4),-0.445,-0.194,-0.0174
RNF126 (UniProt Q9BV68),-2.65,-1,-1.02
RNF139 (UniProt Q8WU17),0.947,-1.16,-0.12
RNF149 (UniProt Q8NC42),-0.556,-0.375,-0.859
RNF167 (UniProt Q9H6Y7),0.669,-0.267,-0.216
RNF169 (UniProt Q8NCN4),-0.0867,-0.0589,0.0354
RNF181 (UniProt Q9P0P0),0.00117,1.27,1.68
RNF187 (UniProt Q5TA31),-0.503,-0.474,-1.96
RNF213 (UniProt Q63HN8),-0.0363,-0.473,-0.111
RNF214 (UniProt Q8ND24),-0.33,-0.0786,-0.0159
RNF216 (UniProt Q9NWF9),0.679,-0.0849,0.015
RNF219 (UniProt Q5W0B1),0.0297,-0.038,-0.0978
RNF220 (UniProt Q5VTB9),-0.283,-0.19,-0.015
RNGTT (UniProt O60942),-0.0249,-0.0218,0.0305
